Measured values from patent publication US11078202B2, “β-lactamase inhibitor and use thereof” (priority 2018, dated 2021).
Structures can show the parent of a compound that is named as a salt.

What was measured:
Format in all cases: cell-based
[1] = test system: Pseudomonas aeruginosa XNWB 0008; experiment: MIC assay of test compounds combined with ceftazidime (8 μg/mL); details: ceftazidime 8 μg/mL fixed
Procedure, shortened: (§1)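 Colonies from 20-24 h TSA plates (35±2 °C) → saline, OD600 0.1-0.15 → 300-fold dilution in 1.1×CAMHB → added to compound plus fixed antibiotic wells, growth and sterility controls included → 16-20 h at 35±2 °C → MIC by CLSI criteria.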

[2] = test system: Klebsiella pneumoniae XNWB 0004; experiment: as above; details: ceftazidime 8 μg/mL fixed
Procedure, shortened: as §1

[3] = test system: Klebsiella pneumoniae XNWB 0005; experiment: as above; details: ceftazidime 8 μg/mL fixed
Procedure, shortened: as §1

[4] = test system: Klebsiella pneumoniae XNWB 0002; experiment: as above; details: ceftazidime 8 μg/mL fixed
Procedure, shortened: as §1

[5] = test system: Klebsiella pneumoniae XNWB 0001; experiment: as above; details: ceftazidime 8 μg/mL fixed
Procedure, shortened: as §1

[6] = test system: Klebsiella pneumoniae XNWB 0006; experiment: as above; details: ceftazidime 8 μg/mL fixed
Procedure, shortened: as §1

[7] = test system: Acinetobacter baumannii XNWB 0007; experiment: as above; details: ceftazidime 8 μg/mL fixed
Procedure, shortened: as §1

[8] = test system: Klebsiella pneumoniae XNWB 0003; experiment: as above; details: ceftazidime 8 μg/mL fixed
Procedure, shortened: as §1

[9] = test system: Pseudomonas aeruginosa XNWB 0008; experiment: MIC assay of test compounds combined with imipenem (4 μg/mL); details: imipenem 4 μg/mL fixed
Procedure, shortened: as §1

[10] = test system: Klebsiella pneumoniae XNWB 0004; experiment: as above; details: imipenem 4 μg/mL fixed
Procedure, shortened: as §1

[11] = test system: Klebsiella pneumoniae XNWB 0005; experiment: as above; details: imipenem 4 μg/mL fixed
Procedure, shortened: as §1

[12] = test system: Klebsiella pneumoniae XNWB 0002; experiment: as above; details: imipenem 4 μg/mL fixed
Procedure, shortened: as §1

[13] = test system: Klebsiella pneumoniae XNWB 0001; experiment: as above; details: imipenem 4 μg/mL fixed
Procedure, shortened: as §1

[14] = test system: Klebsiella pneumoniae XNWB 0006; experiment: as above; details: imipenem 4 μg/mL fixed
Procedure, shortened: as §1

[15] = test system: Acinetobacter baumannii XNWB 0007; experiment: as above; details: imipenem 4 μg/mL fixed
Procedure, shortened: as §1

[16] = test system: Klebsiella pneumoniae XNWB 0003; experiment: as above; details: imipenem 4 μg/mL fixed
Procedure, shortened: as §1

| SMILES | The minimum concentration of test compounds combined with ceftazidime (8 μg/mL) for bacteriostasis [1] | The minimum concentration of test compounds combined with ceftazidime (8 μg/mL) for bacteriostasis [2] | The minimum concentration of test compounds combined with ceftazidime (8 μg/mL) for bacteriostasis [3] | The minimum concentration of test compounds combined with ceftazidime (8 μg/mL) for bacteriostasis [4] | The minimum concentration of test compounds combined with ceftazidime (8 μg/mL) for bacteriostasis [5] | The minimum concentration of test compounds combined with ceftazidime (8 μg/mL) for bacteriostasis [6] | The minimum concentration of test compounds combined with ceftazidime (8 μg/mL) for bacteriostasis [7] | The minimum concentration of test compounds combined with ceftazidime (8 μg/mL) for bacteriostasis [8] | The minimum concentration of test compounds combined with imipenem (4 μg/mL) for bacteriostasis [9] | The minimum concentration of test compounds combined with imipenem (4 μg/mL) for bacteriostasis [10] | The minimum concentration of test compounds combined with imipenem (4 μg/mL) for bacteriostasis [11] | The minimum concentration of test compounds combined with imipenem (4 μg/mL) for bacteriostasis [12] | The minimum concentration of test compounds combined with imipenem (4 μg/mL) for bacteriostasis [13] | The minimum concentration of test compounds combined with imipenem (4 μg/mL) for bacteriostasis [14] | The minimum concentration of test compounds combined with imipenem (4 μg/mL) for bacteriostasis [15] | The minimum concentration of test compounds combined with imipenem (4 μg/mL) for bacteriostasis [16] |
| --- | --- | --- | --- | --- | --- | --- | --- | --- | --- | --- | --- | --- | --- | --- | --- | --- |
| N=C1NC[C@@H](c2nnc([C@@H]3CC4(CC4)[C@@H]4CN3C(=O)N4OS(=O)(=O)O)o2)N1 [Example 55, (1R,4S)-4-(5-((S)-2-iminoimidazolidin-4-yl)-1,3,4-oxadiazol-2-yl)-6-oxo-5,7-diazaspiro [bicyclo[3.2.1]octane-2,1′-cyclopropan]-7-yl sulfate] | B (B: 8-16 μg/mL) | A (A: <8 μg/mL) | A (A: <8 μg/mL) | A (A: <8 μg/mL) | A (A: <8 μg/mL) | A (A: <8 μg/mL) | C (C: 16-128 μg/mL) | A (A: <8 μg/mL) | A (A: <8 μg/mL) | A (A: <8 μg/mL) | A (A: <8 μg/mL) | A (A: <8 μg/mL) | A (A: <8 μg/mL) | A (A: <8 μg/mL) | A (A: <8 μg/mL) | A (A: <8 μg/mL) |
| O=C(NC1CCNCC1)[C@@H]1CC2(CC2)[C@@H]2CN1C(=O)N2OS(=O)(=O)O [Example 27, (1R,4S)-6-oxo-4-(piperidin-4-ylaminoformyl)-5,7-diazaspiro[bicyclo[3.2.1]octane-2,1′-cyclopropan]-7-yl sulfate] | A (A: <8 μg/mL) | B (B: 8-16 μg/mL) | A (A: <8 μg/mL) | A (A: <8 μg/mL) | A (A: <8 μg/mL) | A (A: <8 μg/mL) | C (C: 16-128 μg/mL) | B (B: 8-16 μg/mL) | A (A: <8 μg/mL) | A (A: <8 μg/mL) | A (A: <8 μg/mL) | A (A: <8 μg/mL) | A (A: <8 μg/mL) | A (A: <8 μg/mL) | C (C: 16-128 μg/mL) | A (A: <8 μg/mL) |
| N=C1NC[C@H](c2nnc([C@@H]3CC4(CC4)[C@@H]4CN3C(=O)N4OS(=O)(=O)O)o2)N1 [Example 56, (1R,4S)-4-(5-((R)-2-iminoimidazolidin-4-yl)-1,3,4-oxadiazol-2-yl)-6-oxo-5,7-diazaspiro[bicyclo[3.2.1]octane-2,1′-cyclopropan]-7-yl sulfate] | B (B: 8-16 μg/mL) | A (A: <8 μg/mL) | A (A: <8 μg/mL) | A (A: <8 μg/mL) | A (A: <8 μg/mL) | A (A: <8 μg/mL) | C (C: 16-128 μg/mL) | A (A: <8 μg/mL) | B (B: 8-16 μg/mL) | A (A: <8 μg/mL) | A (A: <8 μg/mL) | A (A: <8 μg/mL) | A (A: <8 μg/mL) | A (A: <8 μg/mL) | B (B: 8-16 μg/mL) | A (A: <8 μg/mL) |
| N=C(N)NC[C@H](O)c1nnc([C@@H]2CC3(CC3)[C@@H]3CN2C(=O)N3OS(=O)(=O)O)o1 [Example 12, (1R,4S)-4-(5-((S)-2-guanidyl-1-hydroxyethyl)-1,3,4-oxadiazol-2-yl)-6-oxo-5,7-diazaspiro[bicyclo[3.2.1]octane-2,1′-cyclopropan]-7-yl sulfate] | C (C: 16-128 μg/mL) | B (B: 8-16 μg/mL) | A (A: <8 μg/mL) | A (A: <8 μg/mL) | B (B: 8-16 μg/mL) | A (A: <8 μg/mL) | C (C: 16-128 μg/mL) | A (A: <8 μg/mL) | B (B: 8-16 μg/mL) | A (A: <8 μg/mL) | A (A: <8 μg/mL) | A (A: <8 μg/mL) | A (A: <8 μg/mL) | A (A: <8 μg/mL) | B (B: 8-16 μg/mL) | A (A: <8 μg/mL) |
| NC1(Cc2nnc([C@@H]3CC4(CC4)[C@@H]4CN3C(=O)N4OS(=O)(=O)O)o2)CC1 [Example 21, (1R,4S)-4-(5-((1-aminocyclopropyl)methyl)-1,3,4-oxadiazol-2-yl)-6-oxo-5,7-diazaspiro [bicyclo[3.2.1]octane-2,1′-cyclopropan]-7-yl sulfate] | C (C: 16-128 μg/mL) | B (B: 8-16 μg/mL) | B (B: 8-16 μg/mL) | A (A: <8 μg/mL) | A (A: <8 μg/mL) | A (A: <8 μg/mL) | C (C: 16-128 μg/mL) | A (A: <8 μg/mL) | C (C: 16-128 μg/mL) | A (A: <8 μg/mL) | A (A: <8 μg/mL) | A (A: <8 μg/mL) | A (A: <8 μg/mL) | A (A: <8 μg/mL) | C (C: 16-128 μg/mL) | A (A: <8 μg/mL) |
